The values below are quoted from earlier work in patent US9642862B2, “Methods for treating chronic or unresolvable pain and/or increasing the pain threshold in a subject and pharmaceutical compositions for use therein” (White Mountain Pharma, Inc., priority 2010, dated 2017).

Series [1] has as its system female-to-male transsexuals. Conditions: doses at or above the male reference range.
Another series concerns rats. The note with it: formalin test, treatment with testosterone.
Another series has as its system chronic pain subjects. Conditions: four subjects, adjunctive to primary opioid therapy, anecdotal.
For series [2], the system named is ovariectomized female rats.

For `C[C@]12CC[C@H]3[C@@H](CCC4=CC(=O)CC[C@@]43C)[C@@H]1CC[C@@H]2O` [testosterone], the side effects entry in series [1] was “develop hirsutism and male-like increased risk for cardiovascular disease and diabetes”. For the same compound, in the series on rats, the pain responses result is “decreased”. In the series with chronic pain subjects, the quality of life result is recorded as “improved”.

Take estrogen: the “spinal cord enkephalin transcription” value in series [2] is “increase”.
